What was measured:
[1] = system: HMGCL; settings: fasting (24 h) or ketogenic diet (2 days); Goldberg et al.; cited from earlier work
[2] = molecular target: T1, CNDP2 (Mus musculus, UniProt Q9D1A2); format: in vivo; settings: ketone ester drink or one week of ketogenic diet
T1 sequence (Q9D1A2 1-475): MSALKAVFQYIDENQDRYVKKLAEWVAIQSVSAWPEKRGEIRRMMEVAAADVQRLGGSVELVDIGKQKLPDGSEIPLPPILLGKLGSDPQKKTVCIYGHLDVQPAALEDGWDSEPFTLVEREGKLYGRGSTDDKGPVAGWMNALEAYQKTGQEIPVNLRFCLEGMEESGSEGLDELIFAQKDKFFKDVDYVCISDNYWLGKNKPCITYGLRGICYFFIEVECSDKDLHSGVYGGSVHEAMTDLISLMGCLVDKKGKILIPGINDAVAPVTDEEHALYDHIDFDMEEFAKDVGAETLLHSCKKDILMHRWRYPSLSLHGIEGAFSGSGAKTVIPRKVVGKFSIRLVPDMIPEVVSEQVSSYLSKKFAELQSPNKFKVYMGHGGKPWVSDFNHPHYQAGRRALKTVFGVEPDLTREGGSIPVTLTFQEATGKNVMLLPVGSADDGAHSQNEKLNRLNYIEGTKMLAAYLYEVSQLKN
Description: (§1) Preparation of plasma samples for LC-MS analysis. Plasma was collected from mice via a submandibular bleed into lithium heparin tubes (BD, 365985) and immediately transferred onto ice. The blood was centrifuged at 4° C. at 5000 rpm for 5 min and the top layer of plasma was aliquoted and frozen at −80 °C. To extract polar metabolites from plasma for LC-MS analysis, 150 μl of a 2:1 mixture of acetonitrile/methanol was added to 50 μl of plasma. The mixture was centrifuged at 4° C. for 10 min at 15,000 rpm and the supernatant was transferred to a LC-MS vial.
(§2) Targeted metabolomics. Targeted measurements were performed using an Agilent 6470 triple quadrupole LC-MS instrument. MS analysis was performed using AJS in negative mode. […] Quantification of the endogenous metabolite concentrations were performed by generating a standard curve with known concentrations of each metabolite. Metabolite standards were analyzed alongside the plasma samples using the same targeted triple quadrupole LC/MS method. […] The dilution of the plasma during the sample preparation was also taken into account for the quantification. […]

[3] = Keto-Med study, plasma metabolites; format: in vivo; settings: human; 4 weeks WFKD vs baseline
Description: (§3) Targeted metabolomics. Targeted measurements were performed using an Agilent 6470 triple quadrupole LC-MS instrument. MS analysis was performed using AJS in negative mode. The AJS source parameters were set as follows: the dry gas temperature was set at 250° C. with a gas flow of 12 l/min and the nebulizer pressure at 25 psi; the sheath gas temperature was set to 300° C. with the sheath gas flow set at 12 l/min; and the capillary voltage was set to 3,500 V. Separation of polar metabolites was performed as described above in the ‘Untargeted measurements of metabolites by LC-MS’ section. Multiple reaction monitoring was performed for the indicated metabolites with the listed dwell times, fragmentor voltage, collision energies, cell accelerator voltages and polarities. Quantification of the endogenous metabolite concentrations were performed by generating a standard curve with known concentrations of each metabolite. Metabolite standards were analyzed alongside the plasma samples using the same targeted triple quadrupole LC/MS method. A calibration standard curve generated from the metabolite standard concentrations and total peak areas were used to calculate the concentrations of each endogenous metabolite. The dilution of the plasma during the sample preparation was also taken into account for the quantification.
Keto-Med study. Keto-Med was a single-site, randomized, crossover, interventional trial comparing 2 metabolically distinct diets (well-formulated ketogenic diet, WFKD; and Mediterranean-plus diet, Med-Plus) among individuals with prediabetes and T2DM. Forty participants aged ≥18 years with prediabetes or T2DM followed the WFKD and the Med-Plus for 12 weeks each, in random order. Participants were randomly assigned into 1 of 2 different diet sequences: WFKD for 12 weeks (phase 1) and then the Med-Plus for 12 weeks (phase 2), or the opposite order. Ad libitum intake was advised, and participants were guided to follow 2 sets of dietary guidelines that shared 3 important similarities (incorporating nonstarchy vegetables and avoiding added sugars and refined grains) and 3 important differences (incorporating compared with avoiding legumes, fruits, and whole, intact grains). During the WFKD phase, participants were counseled to sustain nutritional ketosis by limiting carbohydrates to 20-50 g/day and keeping proteins to ~1.5 g/kg ideal body weight/day, with the remaining kcals coming from fats. Participants were also instructed to consume >3 servings/day of nonstarchy vegetables and maintain adequate mineral and fluid intake for the ketogenic state (sodium, 3-5 g/day; potassium, 3-4 g/day). […]

[4] = Human ketone ester supplementation study, plasma metabolites; format: in vivo; settings: 0.3 g/kg ketone ester, 60 min
Description: as §3
Human ketone ester supplementation study. Following screening, eligible subjects participated in a randomized, counter-balanced, double-blind, placebo-controlled crossover trial comparing BHB supplementation versus placebo, separated by a minimum of 2 days (ClinicalTrials.gov ID NCT04194450). Pre-menopausal women were tested in the follicular phase (days 3-9). Participants were asked to refrain from structured exercise and alcohol, limit physical activity, and follow a standardized diet (~50% carbohydrate, ~30% fat, ~20% protein) on the day before each trial. After refraining from medication use for 24 hours, participants reported to the Exercise, Metabolism and Inflammation Laboratory at the University of British Columbia-Okanagan in an overnight fasted state. Anthropometric measurements were obtained prior to insertion of an indwelling intravenous catheter into the antecubital vein for repeated blood sampling. Blood was collected into EDTA tubes (BD, 367863) and immediately centrifuged at 2000 rpm for 15 min and the top layer of plasma was aliquoted and frozen at −80 °C. After baseline (0) blood sample collection, the oral BHB supplement or placebo was consumed in liquid form (~30-65 mL). The BHB supplement (H.V.M.N®, USA) in the form of the ketone monoester (R)-3-hydroxybutyl (R)-3-hydroxybutyrate (AG®, TDeltaS, Oxford, UK) contained 0.4 g mL-1 BHB, natural flavoring, and <2% stevia leaf extract. The taste-matched placebo drink contained the same natural flavoring as the ketone supplement, stevia leaf extract, 5 mL of Bittrex stock (0.005 g of denatonium benzoate powder in 40 ml of water) and 1.5 mL of arrowroot stock (2 g of arrowroot powder in 50 ml of water) to match the bitter flavor and viscosity of the ketone monoester. Supplements were dispensed into opaque 80 ml bottles with volume calculated for 0.3 g BHB/kg body weight and labelled either A or B by a third-party researcher. Blinding was maintained until completion of data collection and analyses.

[5] = Metabolite quantitation in mouse plasma (QQQ-LC/MS); format: in vivo; settings: 1 week ketogenic diet, 24 h fast, or ketone ester drink 3 g/kg
Description: as §1, §3

[6] = system: HMGCL; assay: Plasma metabolites in Alb-Hmgcl (-/-) mice; format: in vivo, mouse; settings: fasting or ketogenic diet
Description: as §1, §2

[7] = system: mouse tissue lysate proteins (brain, heart, quadriceps, liver); assay: X-Phe photoprobe crosslinking in mouse tissue lysates, in-gel fluorescence; format: binding; settings: 100 μM, UV crosslinking
Description: In vitro crosslinking studies of X-Phe photoprobe. Tissues were collected from wild type C57BL/6J and homogenized using a bead blaster in PBS. The protein homogenate was filtered through a 40 μm strainer to remove any un-homogenized tissue and the lysate diluted to 2 mg/ml. Tissue lysate was incubated with 100 μM of the photoprobe and incubated on ice for 10 minutes protected from light. Reactions were then put under UV for 1 min on a UV Stratalinker. A TAMRA click reaction was performed by adding the following reagents to the indicated final concentrations: […], 1 mM CuSO4, 1 mM TCEP (freshly prepared), 25 μM TAMRA-N3. Reactions were allowed to proceed for 1 hour at room temp, protected from light. Loading buffer was added to the reactions, boiled for 10 minutes and run down a protein gel. The gel was imaged prior to staining with a coomassie dye.

CC(O)CC(=O)O (stereo not drawn) [BHB, beta-hydroxybutyrate, reference compound]
circulating BHB levels in Alb-Hmgcl (-/-) mice [1]: reductions in circulating BHB levels
plasma BHB in CNDP2-KO vs WT mice [2]: unchanged
elevation of plasma BHB on WFKD [3]: 5 fold
plasma BHB after ketone ester drink [4]: dramatically elevated
plasma BHB levels [5]: elevated by each of these conditions

C[C@@H](O)CC(=O)N1CCC[C@H]1C(=O)O [Keto-Pro]
plasma level in Alb-Hmgcl (-/-) mice [6]: reduced in Alb-Hmgcl (−/−) mice
plasma keto amino acids in CNDP2-KO vs wild type mice [2]: unaltered

C#CCCC(=O)N[C@@H](Cc1ccc(N=[N+]=[N-])cc1)C(=O)O [X-Phe photoprobe]
labelling of tissue proteins by photoprobe [7]: directly interacts with protein targets in a tissue-specific manner
